Assay [1] concerns the target human ACC2 (acetyl-coenzyme A carboxylase 2) (Homo sapiens, UniProt O00763). Briefly: Human ACC2 enzyme assay, Assay B2 (ADP-Glo).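 Note: human ACC2 activity read as ADP product, detected by luciferase glow luminescence after residual ATP removal, enzyme near 2 ng/µl in linear range, detection steps at 22 °C.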 In general terms: ADP-Glo first removes unused ATP, then detects ADP through luciferase.
Procedure: The hACC2-inhibitory action of the substances of the present invention was measured in the hACC2 assay described in the paragraphs below.
Essentially, the enzyme activity is measured by quantifying the adenosine diphosphate (ADP) formed as a byproduct of the enzyme reactions using the ADP-Glo™ detection system from Promega. In this test, initially the adenosine triphosphate (ATP) not consumed in the enzyme reaction is converted quantitatively with an adenylate cyclase (“ADP-GLO reagent”) into cAMP, the adenylate cyclase is then stopped and (“kinase detection reagent”) the ADP formed is subsequently converted into ATP, which is converted in a luciferase-based reaction into a glow luminescence signal.
The concentration of the hACC2 was adapted to the respective activity of the enzyme and adjusted such that the assay operated in the linear range. Typical concentrations were in the range of 2 ng/μl. […] The amount of light emitted was taken as a measure for the amount of ADP formed and thus for the enzyme activity of the hACC2.
Assay [2] deals with T1, human ACC1 (acetyl-coenzyme A carboxylase alpha transcript variant 1) (Homo sapiens, UniProt Q13085).
T1 construct: FLAG (C); made in house; host or cells: baculovirus-infected insect cells (Hi5)
Briefly: Human ACC1 enzyme assay, Assay B1 (ADP-Glo). The class given is biochemical.

The mark [3] stands for this setting: Assay B1, ADP-Glo, read-out: ACC 1 (=B1) IC50.
The mark [4] stands for this setting: Assay B1, read-out: ACC 1 (=B1) IC50.

Results on 22 compounds are retold here after patent US20130040935A1, “CYCLIC KETO-ENOLS FOR THERAPY” (BAYER INTELLECTUAL PROPERTY GMBH, priority 2010, published 2013).

Usually IC50 stands for the midpoint of a concentration-inhibition curve.

Read-outs that look alike come from different tables or passages of the source.

human ACC2 (acetyl-coenzyme A carboxylase 2), sequence (O00763 27-2458 limits assumed): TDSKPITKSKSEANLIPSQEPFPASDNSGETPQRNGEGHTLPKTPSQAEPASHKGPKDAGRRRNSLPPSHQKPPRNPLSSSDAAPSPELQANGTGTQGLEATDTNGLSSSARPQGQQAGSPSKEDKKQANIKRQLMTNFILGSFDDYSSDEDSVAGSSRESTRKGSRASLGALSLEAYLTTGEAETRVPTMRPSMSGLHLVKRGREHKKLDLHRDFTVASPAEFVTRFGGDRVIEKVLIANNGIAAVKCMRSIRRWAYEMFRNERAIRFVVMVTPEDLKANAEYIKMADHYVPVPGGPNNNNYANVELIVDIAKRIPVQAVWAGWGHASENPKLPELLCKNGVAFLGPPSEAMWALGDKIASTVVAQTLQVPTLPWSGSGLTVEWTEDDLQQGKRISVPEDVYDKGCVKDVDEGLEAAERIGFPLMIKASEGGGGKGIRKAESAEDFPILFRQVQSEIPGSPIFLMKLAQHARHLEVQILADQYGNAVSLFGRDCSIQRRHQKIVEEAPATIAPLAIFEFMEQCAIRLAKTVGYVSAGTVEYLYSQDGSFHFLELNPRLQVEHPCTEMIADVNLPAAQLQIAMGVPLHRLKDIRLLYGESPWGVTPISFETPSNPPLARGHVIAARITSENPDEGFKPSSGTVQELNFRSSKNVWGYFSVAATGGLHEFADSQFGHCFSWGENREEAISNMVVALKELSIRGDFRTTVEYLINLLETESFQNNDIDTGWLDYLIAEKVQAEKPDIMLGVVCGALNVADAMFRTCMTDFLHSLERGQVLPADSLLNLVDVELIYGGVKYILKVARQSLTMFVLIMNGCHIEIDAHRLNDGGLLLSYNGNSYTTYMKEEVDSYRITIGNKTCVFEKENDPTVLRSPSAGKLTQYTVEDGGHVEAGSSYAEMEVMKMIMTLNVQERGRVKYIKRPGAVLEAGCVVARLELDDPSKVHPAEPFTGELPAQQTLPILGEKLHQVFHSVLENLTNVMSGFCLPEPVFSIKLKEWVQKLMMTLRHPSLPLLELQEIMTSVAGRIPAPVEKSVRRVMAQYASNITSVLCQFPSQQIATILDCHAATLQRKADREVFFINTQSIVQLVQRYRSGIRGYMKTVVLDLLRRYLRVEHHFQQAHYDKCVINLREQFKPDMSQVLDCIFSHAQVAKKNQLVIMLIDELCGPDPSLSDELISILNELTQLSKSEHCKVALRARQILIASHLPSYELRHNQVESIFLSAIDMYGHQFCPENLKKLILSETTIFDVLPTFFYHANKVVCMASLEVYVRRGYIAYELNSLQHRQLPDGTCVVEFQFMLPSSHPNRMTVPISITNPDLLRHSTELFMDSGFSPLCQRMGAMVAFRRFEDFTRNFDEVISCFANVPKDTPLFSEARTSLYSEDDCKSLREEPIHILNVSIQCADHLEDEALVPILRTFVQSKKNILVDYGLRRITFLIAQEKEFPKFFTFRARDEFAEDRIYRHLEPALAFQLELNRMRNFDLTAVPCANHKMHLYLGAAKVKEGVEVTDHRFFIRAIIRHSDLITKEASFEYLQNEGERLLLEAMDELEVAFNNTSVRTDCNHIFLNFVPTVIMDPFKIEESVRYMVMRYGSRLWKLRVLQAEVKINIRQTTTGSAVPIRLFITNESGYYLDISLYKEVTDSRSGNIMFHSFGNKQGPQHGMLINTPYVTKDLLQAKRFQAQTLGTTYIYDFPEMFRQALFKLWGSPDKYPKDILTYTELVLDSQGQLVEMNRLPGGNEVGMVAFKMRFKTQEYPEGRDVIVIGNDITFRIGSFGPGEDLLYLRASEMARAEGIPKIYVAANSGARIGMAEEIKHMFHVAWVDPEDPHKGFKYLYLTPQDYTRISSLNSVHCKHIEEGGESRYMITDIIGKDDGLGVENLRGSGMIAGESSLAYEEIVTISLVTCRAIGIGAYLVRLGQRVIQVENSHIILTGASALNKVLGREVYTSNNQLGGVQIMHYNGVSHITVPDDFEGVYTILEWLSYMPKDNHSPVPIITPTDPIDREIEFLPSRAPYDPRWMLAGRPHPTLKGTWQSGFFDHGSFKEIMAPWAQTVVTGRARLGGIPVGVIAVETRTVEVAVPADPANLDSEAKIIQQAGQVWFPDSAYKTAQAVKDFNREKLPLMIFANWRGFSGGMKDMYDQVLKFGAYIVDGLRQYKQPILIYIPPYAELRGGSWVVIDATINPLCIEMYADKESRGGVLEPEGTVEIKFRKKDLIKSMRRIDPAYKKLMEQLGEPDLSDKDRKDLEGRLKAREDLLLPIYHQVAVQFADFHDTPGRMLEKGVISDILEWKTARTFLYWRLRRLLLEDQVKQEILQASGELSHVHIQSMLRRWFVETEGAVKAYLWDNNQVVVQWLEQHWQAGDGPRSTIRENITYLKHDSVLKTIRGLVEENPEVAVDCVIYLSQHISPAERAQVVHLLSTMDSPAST

With `Cc1ccc(-c2ccc(Cl)cc2)cc1C1=C(O)C2(CCCCC2)OC1=O` [2-10, 3-(4′-chloro-4-methylbiphenyl-3-yl)-4-hydroxy-1-oxaspiro[4.5]dec-3-en-2-one], the IC50 was 4700 nM in assay [1] and 67 nM in assay [2] (setting [3]).

Regarding `COC1CCCC2(C1)OC(=O)C(c1cc(-c3ccc(Cl)cc3)c(C)cc1C)=C2O` (centres unmarked) [2-11, 3-(4′-chloro-4,6-dimethylbiphenyl-3-yl)-4-hydroxy-7-methoxy-1-oxaspiro[4.5]dec-3-en-2-one], the IC50 in assay [1] was found to be 12400 nM; in assay [2] (setting [3]) it was 1260 nM.

On to `COC1CCCC2(C1)OC(=O)C(c1cc(-c3ccc(Cl)cc3)ccc1C)=C2O` (centres unmarked) [2-14, 3-(4′-chloro-4-methylbiphenyl-3-yl)-4-hydroxy-7-methoxy-1-oxaspiro[4.5]dec-3-en-2-one], for which the half-inhibitory concentration (IC50) in assay [1] was greater than 20000 nM; in assay [2] (setting [3]), 772 nM.

Take `Cc1ccc(-c2ccc(Cl)cc2)cc1C1=C(O)C2(CCC3(CC2)OCCO3)OC1=O` [2-15, 11-(4′-chloro-4-methylbiphenyl-3-yl)-12-hydroxy-1,4,9-trioxadispiro[4.2.4.2]tetradec-11-en-10-one]: the IC50 in assay [1] was 8020 nM; in assay [2] (setting [3]), 111 nM.

With `COCC1CCC2(CC1)OC(=O)C(c1cc(-c3ccc(Cl)cc3)ccc1Cl)=C2O` (centres unmarked) [2-16, 3-(4,4′-dichlorobiphenyl-3-yl)-4-hydroxy-8-(methoxymethyl)-1-oxaspiro[4.5]dec-3-en-2-one], the concentration for half-maximal inhibition (IC50) in assay [1] is 5310 nM; in assay [2], 138 nM.

With `COCCC1CCCC2(C1)OC(=O)C(c1cc(-c3ccc(Cl)cc3)ccc1Cl)=C2O` (centres unmarked) [2-19, 3-(4,4′-dichlorobiphenyl-3-yl)-4-hydroxy-7-(2 methoxyethyl)-1-oxaspiro[4.5]dec-3-en-2-one], the IC50 in assay [1] amounted to 13600 nM; in assay [2] (setting [3]), 812 nM.

In the case of `O=C1OC2(CCC3(CCCO3)CC2)C(O)=C1c1cc(-c2ccc(Cl)cc2)ccc1Cl` (centres unmarked) [2-27, 3-(4,4′-dichlorobiphenyl-3-yl)-4-hydroxy-1,9-dioxadispiro[4.2.4.2]tetradec-3-en-2-one], the values for the IC50 in assay [1] and in assay [2] were 7010 nM and 801 nM, respectively.

Consider `Cc1ccc(-c2ccc(Cl)cc2)cc1C1=C(O)C2(CCC3(CCCO3)CC2)OC1=O` (centres unmarked) [2-29, 3-(4′-chloro-4-methylbiphenyl-3-yl)-4-hydroxy-1,9-dioxadispiro[4.2.4.2]tetradec-3-en-2-one], for which the IC50 in assay [1] was 3000 nM; in assay [2] (setting [3]), 206 nM.

Consider `CCCC1CCC2(CC1)OC(=O)C(c1cc(-c3ccc(Cl)cc3)ccc1C)=C2O` (centres unmarked) [2-36, 3-(4′-chloro-4-methylbiphenyl-3-yl)-4-hydroxy-8-propyl-1-oxaspiro[4.5]dec-3-en-2-one], for which the IC50 was found to be 2410 nM in assay [1] and 447 nM in assay [2].

In the case of `Cc1ccc(-c2ccc(Cl)cc2)cc1C1=C(O)C2(CCCCCC2)OC1=O` [2-38, 3-(4′-chloro-4-methylbiphenyl-3-yl)-4-hydroxy-1-oxaspiro[4.6]undec-3-en-2-one], the IC50 stood at 7380 nM in assay [1] and 393 nM in assay [2].

For `COC1CCC2(CC1)OC(=O)C(c1cc(-c3ccc(Cl)cc3)ccc1C)=C2O` (centres unmarked) [2-39, 3-(4′-chloro-4-methylbiphenyl-3-yl)-4-hydroxy-8-methoxy-1-oxaspiro[4.5]dec-3-en-2-one], the IC50 in assay [1] is 5270 nM; in assay [2] (setting [3]) it was 162 nM.

Consider `Cc1cc(C)c(-c2ccc(Cl)cc2)cc1C1=C(O)C2(CCOCC2)OC1=O` [2-41, 3-(4′-chloro-4,6-dimethylbiphenyl-3-yl)-4-hydroxy-1,8-dioxaspiro[4.5]dec-3-en-2-one], for which the IC50 was 6590 nM in assay [1] and 425 nM in assay [2] (setting [3]).

`Cc1cc(C)c(-c2ccc(Cl)cc2)cc1C1=C(O)C2(CCCOC2)OC1=O` (centres unmarked) [2-46, 3-(4′-chloro-4,6-dimethylbiphenyl-3-yl)-4-hydroxy-1,7-dioxaspiro[4.5]dec-3-en-2-one]: the IC50 in assay [1] stood at 5260 nM; in assay [2] (setting [3]), 420 nM.

As to `Cc1cc(C)c(-c2ccc(Cl)cc2)c(C)c1C1=C(O)C2(CCCC2)OC1=O` [2-49, 3-(4′-chloro-2,4,6-trimethylbiphenyl-3-yl)-4-hydroxy-1-oxaspiro[4.4]non-3-en-2-one], the figures for the half-inhibitory concentration (IC50) in assay [1] and in assay [2] were greater than 20000 nM and no less than 20000 nM, respectively.

Take `Cc1ccc(-c2cccc(Cl)c2)cc1C1=C(O)C2(CCCCCC2)OC1=O` [2-50, 3-(3′-chloro-4-methylbiphenyl-3-yl)-4-hydroxy-1-oxaspiro[4.6]undec-3-en-2-one]: the IC50 came to 15400 nM in assay [1] and 1300 nM in assay [2].

With `COC1CCC2(CC1)SC(=O)C(c1cc(-c3ccc(Cl)cc3)ccc1C)=C2O` (centres unmarked) [3-1, 3-(4′-chloro-4-methylbiphenyl-3-yl)-4-hydroxy-8-methoxy-1-thiaspiro[4.5]dec-3-en-2-one], the IC50 in assay [1] turned out to be 15500 nM; in assay [2], 1410 nM.

Turning to `Cc1ccc(-c2cccc(Cl)c2)cc1C1=C(O)C2(CCCCC2)CC1=O` [6-3, 3-(3′-chloro-4-methylbiphenyl-3-yl)-4-hydroxyspiro[4.5]dec-3-en-2-one], the IC50 in assay [1] is greater than 20000 nM; in assay [2] (setting [4]), 1170 nM.

For `Cc1ccc(-c2ccc(Cl)cc2)cc1C1=C(O)C2(CCCC2)CC1=O` [6-4, 3-(4′-chloro-4-methylbiphenyl-3-yl)-4-hydroxyspiro[4.4]non-3-en-2-one], the values for the IC50 in assay [1] and in assay [2] (setting [4]) were 4630 nM and 218 nM, respectively.

On to `Cc1ccc(-c2ccc(Cl)cc2)c(C)c1C1C(=O)N2CCOCCN2C1=O` [8-8, 8-(4′-chloro-2,4-dimethylbiphenyl-3-yl)tetrahydro-7H-pyrazolo[1,2-d][1,4,5]oxadiazepine-7,9(8H)-dione], for which the IC50 in assay [1] was greater than 20000 nM; in assay [2], 1310 nM.

On to `Cc1ccc(-c2ccc(C(F)(F)F)cc2)cc1-c1c(O)c2ccc(Cl)cc2[nH]c1=O` [9-6, 7-chloro-4-hydroxy-3-[4-methyl-4′-(trifluoromethy)biphenyl-3-yl]quinolin-2(1H)-one], for which the IC50 is greater than 20000 nM in assay [1] and 1280 nM in assay [2] (setting [4]).

Regarding `Cc1cc(C)c(-c2c(O)c3ccc(Cl)cc3[nH]c2=O)cc1-c1ccc(Cl)cc1` [9-12, 7-chloro-3-(4′-chloro-4,6-dimethyl-biphenyl-3-yl)-4-hydroxyquinolin-2(1H)-one], the half-maximal inhibitory concentration (IC50) in assay [1] was determined as 2090 nM; in assay [2] (setting [4]), 376 nM.

With `O=c1[nH]c2cc(Cl)ccc2c(O)c1-c1cc(-c2ccc(Cl)cc2)ccc1Cl` [9-13, 7-chloro-3-(4,4′-dichlorobiphenyl-3-yl)-4-hydroxyquinolin-2(1H)-one], the concentration for half-maximal inhibition (IC50) in assay [1] worked out at 3960 nM; in assay [2] (setting [4]), 191 nM.
